Measured values from US20120115175A1, “METHODS FOR DIAGNOSING ELEVATED RIGHT OR LEFT VENTRICULAR FILLING PRESSURE” (Tufts Medical Center, Inc., priority 2010, published 2012).
Numbered stars: 1 amine (or outer) side, 2 acyl side, 3 side chain; on linkers, the order of the positions; unused ones are H or OH. Bridge positions count the residues as written; N and C are the ends. Square brackets hold non-standard residues; d marks the D form. Peptide text beside a SMILES is read from it. I, II: the chains in the order shown. Actinocin(9to1) = Cc1c2oc3c(C)ccc(C(=O)[*:1])c3nc-2c(C(=O)[*:2])c(N)c1=O; NMeV = CN[C@H](C(=O)O)C(C)C; Sar = CNCC(=O)O

Tested on: human cardiac fibroblasts (hCF)
Assay: Cyclic mechanical stretch of human cardiac fibroblasts: endoglin mRNA (qRT-PCR), endoglin protein (Western blot), sEng release (ELISA)
Format: cell-based
Details: for stretch-induced endoglin mRNA expression: pre-treated 1 μM for 2 hours prior to mechanical stretch (10% cyclic stretch, 1 Hz), qRT-PCR
Description: As a first step towards understanding increased endoglin expression in heart failure, we exposed cardiac fibroblasts to cyclic mechanical stretch in vitro using a FlexCell apparatus. Briefly, human cardiac fibroblasts (hCF) were cultured onto silastic membranes and exposed to 10% cyclic stretch (1 Hz) for various time points in fibroblast basal media (FBM). We identified a rapid increase in sEng release by enzyme-linked immunosorbent assay (ELISA), followed by increased endoglin mRNA expression by quantitative real-time PCR (qRT-PCR) (FIG. 7).
To begin exploring the mechanism underlying stretch-induced endoglin expression, we pre-treated cultured hCF in FBM with actinomycin-D (Act-D; 1 μM), SB-431542 (an ALK-5 inhibitor; 1 μM), or anti-TGFβ1 antibodies (10 ng/mL, R&D Systems) for 2 hours prior to mechanical stretch. […] Furthermore, ERK-inhibition with 10 μM PD98059 attenuated stretch-induced mEng protein expression and sEng release by Western blot and ELISA (FIG. 9).

[1] = hCF in FBM, pre-treated 1 μM for 2 hours prior to mechanical stretch, ELISA

Cc1c2oc3c(C)ccc(C(=O)N[C@@H]4C(=O)N[C@H](C(C)C)C(=O)N5CCC[C@H]5C(=O)N(C)CC(=O)N(C)[C@@H](C(C)C)C(=O)O[C@@H]4C)c3nc-2c(C(=O)N[C@@H]2C(=O)N[C@H](C(C)C)C(=O)N3CCC[C@H]3C(=O)N(C)CC(=O)N(C)[C@@H](C(C)C)C(=O)O[C@@H]2C)c(N)c1=O [Act-D, actinomycin-D] (I: T[dV]P[Sar][NMeV] / II: T[dV]P[Sar][NMeV]; ester I:1-I:C, II:1-II:C; linker I:N-II:N via Actinocin(9to1))
endoglin protein expression (hCF in FBM, pre-treated 1 μM for 2 hours prior to mechanical stretch): minimal effect
stretch-induced endoglin mRNA expression (hCF in FBM): abolished
sEng release [1]: minimal effect

COc1cccc(-c2cc(=O)c3ccccc3o2)c1N [PD98059]
stretch-induced sEng release (hCF, 10 μM, ELISA): attenuated
stretch-induced mEng protein expression (hCF, 10 μM, Western blot): attenuated

NC(=O)c1ccc(-c2nc(-c3ccc4c(c3)OCO4)c(-c3ccccn3)[nH]2)cc1 [SB-431542]
stretch-induced endoglin mRNA expression (hCF in FBM): partially attenuated
sEng release [1]: failed to inhibit
